The record followed here is patent US10100039B2, “Allisartan isoproxil polymorph, its preparation method and pharmaceutical” (SHENZHEN SALUBRIS PHARMACEUTICALS CO., LTD, priority 2014, dated 2018).

Holding throughout (format): physicochemical
A short description of data set [1]: Bulk density by cylinder knocking method.
Data set [2] is described as follows: Repose angle by fixed funnel method (flowability). The text has this:
Repeated the method of patent CN200710094131.0 to obtain fine loose allisartan isoproxil powder (referred to as literature crystal), measured the response angle by fixed funnel method.

Data set [3] can be described thus: Stability study of influence factors (high temperature, high humidity, light). The conditions noted are these: for Stability under influence factors (conclusion in words): photostability, high humidity and high temperature study. How it is done:
Stability study on the mentioned polymorph in Example 1 was performed in high temperature, high humidity and light conditions to study the influence factors.

A short description of data set [4]: Observation of electrostatic phenomenon of the crystal. The conditions noted are these: compared with the crystal disclosed. How it is done:
Added 33 ml of isopropanol and 66 ml of n-heptane in the remainder (allisartan isoproxil crude), heated to 76° C. and stirred for 2 h, then cooled to 60° C. and stirred for 1 h. Cooled the system slowly to 0° C., continued to stir for 3 h. Filtered, and washed the filter cake with n-heptane.

Where [5] appears, read: high humidity test 25° C., RH 92.5%, day 0.
Where [6] appears, read: high humidity test 25° C., RH 92.5%, day 5.
Where [7] appears, read: high humidity test 25° C., RH 92.5%, day 10.
Where [8] appears, read: high temperature test 60° C., day 0.
[9] abbreviates: high temperature test 60° C., day 5.
The mark [10] stands for this setting: high temperature test 60° C., day 10.
Setting [11] is: photostability test 4500lx ± 500lx, day 0.
[12] abbreviates: photostability test 4500lx ± 500lx, day 5.
Where [13] appears, read: photostability test 4500lx ± 500lx, day 10.

Molecules are shown by their SMILES.

Take `CCCCc1nc(Cl)c(C(=O)OCOC(=O)OC(C)C)n1Cc1ccc(-c2ccccc2-c2nnn[nH]2)cc1` [Literature crystal, 2-butyl-4-chloro-1-[2′-(1H-tetrazol-5-yl)-1, 1′-biphenyl-methyl]-imidazole-5-carboxylic acid, 1-[(isopropoxy)-carbonyloxy]methyl ester, reference compound]: the Bulk density in data set [1] was 0.51 g/mL. The Repose angle in data set [2] is given as 48-53 °.
In data set [1], `CCCCc1nc(Cl)c(C(=O)OCOC(=O)OC(C)C)n1Cc1ccc(-c2ccccc2-c2nnn[nH]2)cc1` [Example 1, 2-butyl-4-chloro-1-[2′-(1H-tetrazol-5-yl)-1, 1′-biphenyl-methyl]-imidazole-5-carboxylic acid, 1-[(isopropoxy)-carbonyloxy]methyl ester] registered a Bulk density of 0.75 g/mL. Further, the Sum of impurities was 0.39% in data set [3] (setting [5]); 0.37% in data set [3] (setting [6]); 0.38% in data set [3] (setting [7]); 0.39% in data set [3] (setting [8]); 0.39% in data set [3] (setting [9]); 0.39% in data set [3] (setting [10]). In addition, the Sum of impurities in data set [3] (setting [11]) is recorded as 0.39%; in data set [3] (setting [12]) it was 0.37%; in data set [3] (setting [13]), 0.38%. Also, the Weight gained in data set [3] (setting [5]), in data set [3] (setting [6]), in data set [3] (setting [7]), in data set [3] (setting [8]), in data set [3] (setting [9]) and in data set [3] (setting [10]) was 0% each time. Also, the Weight gained in data set [3] (setting [11]), in data set [3] (setting [12]) and in data set [3] (setting [13]) was 0% throughout. For the same compound, the “Stability under influence factors (conclusion in words)” value (shortened to “Stability under influence factors”) in data set [3] is on record as “remained stable”. Besides, the Electrostatic phenomenon result in data set [4] was “does not have obvious electrostatic phenomenon”. The Repose angle in data set [2] is 34-36 °.
`CCCCc1nc(Cl)c(C(=O)OCOC(=O)OC(C)C)n1Cc1ccc(-c2ccccc2-c2nnn[nH]2)cc1` [Example 2, 2-butyl-4-chloro-1-[2′-(1H-tetrazol-5-yl)-1, 1′-biphenyl-methyl]-imidazole-5-carboxylic acid, 1-[(isopropoxy)-carbonyloxy]methyl ester]: the Bulk density in data set [1] amounted to 0.73 g/mL. The “Stability under influence factors” value in data set [3] was “same result with that of Example 1”. Also, the Repose angle in data set [2] is 35-37 °.
In data set [1], `CCCCc1nc(Cl)c(C(=O)OCOC(=O)OC(C)C)n1Cc1ccc(-c2ccccc2-c2nnn[nH]2)cc1` [Example 4, 2-butyl-4-chloro-1-[2′-(1H-tetrazol-5-yl)-1, 1′-biphenyl-methyl]-imidazole-5-carboxylic acid, 1-[(isopropoxy)-carbonyloxy]methyl ester] gave a Bulk density of 0.77 g/mL. Besides, in data set [3], the “Stability under influence factors” value is reported as “same result with that of Example 1”. Moreover, in data set [2], the Repose angle is listed as 35-38 °.
`CCCCc1nc(Cl)c(C(=O)OCOC(=O)OC(C)C)n1Cc1ccc(-c2ccccc2-c2nnn[nH]2)cc1` [Example 3, 2-butyl-4-chloro-1-[2′-(1H-tetrazol-5-yl)-1, 1′-biphenyl-methyl]-imidazole-5-carboxylic acid, 1-[(isopropoxy)-carbonyloxy]methyl ester] had a Bulk density in data set [1] of 0.77 g/mL. The “Stability under influence factors” value in data set [3] was “same result with that of Example 1”. Also, the Repose angle in data set [2] is on record as 33-35 °.
